Source: ChEMBL document CHEMBL1131778, “Solid phase synthesis of quinolones” (1999)

Columns and labels:
Brugia malayi [1] = assay: In vitro anti-filarial activity against female adult worms of Brugia. malayi at 100 uM concentration, using MTT reduction potential assay.; assay type: functional
Brugia malayi [2] = assay: In vitro anti-filarial activity against female adult worms of Brugia. malayi at 100 uM concentration, using motility assay.; assay type: functional
Brugia malayi [3] = assay: In vitro anti-filarial activity against male adult worms of Brugia. malayi at 100 uM concentration, using motility assay.; assay type: functional
Brugia malayi [4] = assay: In vitro anti-filarial activity against male adult worms of Brugia. malayi at 100 uM concentration, using MTT reduction potential assay.; assay type: functional
Brugia malayi [5] = assay: In vitro anti-filarial activity against female adult worms of Brugia. malayi at 100 uM concentration, using motility assay; assay type: functional
Brugia malayi [6] = assay: In vitro anti-filarial activity against male adult worms of Brugia. malayi at 100 uM concentration, using motility assay D = Dead worms; assay type: functional, organism-based
Brugia malayi [7] = assay: In vitro anti-filarial activity against female adult worms of Brugia. malayi at 100 uM concentration, using motility assay; D = Dead worms; assay type: functional, organism-based
Brugia malayi [8] = assay: In vitro anti-filarial activity against male adult worms of Brugia. malayi at 100 uM concentration, using motility assay; D = Dead worms; assay type: functional, organism-based
Brugia malayi [9] = assay: In vitro anti-filarial activity of the compound against male adult worms of Brugia. malayi at 100 uM concentration, using MTT reduction potential assay.; assay type: functional

Compound | inhibition at 100 µM (Brugia malayi [1]) [%] | Mortality (Brugia malayi [2]) | Mortality (Brugia malayi [3]) | inhibition at 100 µM (Brugia malayi [4]) [%] | Mortality (Brugia malayi [5]) | Mortality (Brugia malayi [6]) | Mortality (Brugia malayi [7]) | Mortality (Brugia malayi [8]) | inhibition at 100 µM (Brugia malayi [9]) [%]
O=C(O)c1ccc2ncc(C(=O)NC3CCCCCC3)c(O)c2c1 | 0 | 3 | 3 | 0 |  |  |  |  | 
O=C(O)c1ccc2ncc(C(=O)NC3CCCCC3)c(O)c2c1 | 0 |  | 3 | 0 | 3 |  |  |  | 
CCOC(=O)c1cnc2ccc(C(=O)O)cc2c1O | 0 | 3 | 3 | 0 |  |  |  |  | 
CCCCCCCCNC(=O)c1cnc2ccc(C(=O)O)cc2c1O | 84.8 |  |  | 62.8 |  | Dead worms | Dead worms |  | 
CCCCCCNC(=O)c1cnc2ccc(C(=O)O)cc2c1O | 64.8 |  |  |  |  |  | Dead worms | Dead worms | 58.8
